Results: patent US8680149B2, “1-amino-alkylcyclohexane derivatives for the treatment of mast cell mediated diseases” (Merz Pharma GmbH & Co. KGaA, priority 2008, dated 2014)

Columns and labels:
[1] = system: human mast cell line HMC-1; assay: Mast cell degranulation in vitro: histamine concentration in culture medium by sandwich-ELISA; type: cell-based; conditions: for inhibition of cholinergic agonist-induced mast cell degranulation (histamine concentration in culture supernatant): neramexane 10E-6M to 10E-16M added 5 minutes prior to cholinergic stimulus, histamine determined 10 minutes after addition; for responsiveness of HMC-1 cells (degranulation) at low calcium: low calcium concentration; for induction of mast cell degranulation (histamine concentration in culture supernatant): calcium concentration elevated to 1 mM, histamine 10 minutes after addition
Method: The human mast cell line HMC-1 is obtained from J. H. Butterfield (Minnesota, USA) and cultured under standard conditions in RPMI Medium 1640 (GIBCO, Karlsruhe, Germany) at 37° C. For functional assays, the calcium concentration of the medium is adjusted to 1 mM.
The Mast cell degranulation is monitored by determination of histamine concentration in the culture medium using a sandwich-ELISA from IBL (Hamburg, Germany).Histamine concentration is determined in untreated cells, medium without cells, HMC-1 cells treated with calcimycin, (a calcium ionophore,used as positive control). Additional controls to check reagibilty of the cells are LPS (lipopolysaccharide) and PMA (phorbol 12-myristate 13-acetate). Histamine concentration is determined 10 minutes after addition of the respective substances. Nicotine and choline are used as stimulus for nAChR, muscarine as stimulus for mAChR, and a combination of acetylcholine and eserine (an acetylcholinesterase inhibitor) is used as pancholinergic stimulus. Neramexane is tested at concentrations ranging from 10E-6M to 10E-16M and is added to the culture medium 5 minutes prior to the respective cholinergic stimulus. All experiments are performed twice in quadruplicate.
Statistical analysis is performed using the Wilcoxon sum-of-ranks test (available on www.statpages.net).
In order to determine the sensitivity of mast cells towards cholinergic signals, the HMC-1 cell line cultured under standard conditions with either low or high calcium concentrations is used.

[2] = biological target: α9α10 nicotinic Acetylcholine Receptor (Rattus norvegicus, UniProt P43144+Q9JLB5); conditions: cited from earlier work
[3] = neramexane at concentrations higher than 1 mM

Chain of α9α10 nicotinic Acetylcholine Receptor (P43144 26-479): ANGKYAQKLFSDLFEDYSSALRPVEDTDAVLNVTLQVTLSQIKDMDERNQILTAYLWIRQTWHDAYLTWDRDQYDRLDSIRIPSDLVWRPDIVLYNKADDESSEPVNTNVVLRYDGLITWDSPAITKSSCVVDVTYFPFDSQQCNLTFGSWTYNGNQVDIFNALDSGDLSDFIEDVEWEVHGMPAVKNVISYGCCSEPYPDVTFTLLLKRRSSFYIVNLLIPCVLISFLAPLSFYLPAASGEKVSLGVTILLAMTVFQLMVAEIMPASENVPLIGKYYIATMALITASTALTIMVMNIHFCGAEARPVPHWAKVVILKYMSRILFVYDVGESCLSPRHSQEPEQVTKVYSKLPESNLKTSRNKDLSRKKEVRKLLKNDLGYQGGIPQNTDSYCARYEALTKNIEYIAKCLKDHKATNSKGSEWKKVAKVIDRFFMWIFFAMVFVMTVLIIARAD
Chain of α9α10 nicotinic Acetylcholine Receptor (Q9JLB5 25-447): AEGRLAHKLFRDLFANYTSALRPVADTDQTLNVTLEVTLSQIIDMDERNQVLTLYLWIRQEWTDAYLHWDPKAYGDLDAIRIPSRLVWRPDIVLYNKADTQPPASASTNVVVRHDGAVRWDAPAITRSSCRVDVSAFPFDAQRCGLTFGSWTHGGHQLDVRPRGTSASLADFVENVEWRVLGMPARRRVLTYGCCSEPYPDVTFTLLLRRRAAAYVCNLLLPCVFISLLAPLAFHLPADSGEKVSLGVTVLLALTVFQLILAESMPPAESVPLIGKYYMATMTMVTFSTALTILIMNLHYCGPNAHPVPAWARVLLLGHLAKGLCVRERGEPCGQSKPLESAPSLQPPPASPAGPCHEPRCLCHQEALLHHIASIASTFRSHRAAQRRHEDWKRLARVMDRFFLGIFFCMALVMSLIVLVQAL

SMILES | inhibition of cholinergic agonist-induced mast cell degranulation (histamine concentration in culture supernatant) ([1]; HMC-1 cells, calcium 1 mM) | responsiveness of HMC-1 cells (degranulation) at low calcium [1] | induction of mast cell degranulation (histamine concentration in culture supernatant) ([1]; HMC-1 cells) | further results
CC1(C)CC(C)(C)CC(C)(N)C1 [Neramexane, 1-amino-1,3,3,5,5-pentamethylcyclohexane] | dose-dependent inhibitory effect |  |  | blockade of α9α10 nicotinic Acetylcholine Receptor [2]: blocker; mode of antagonism at α9α10 nicotinic Acetylcholine Receptor [2]: non-competitive antagonist; dependence of blockage on membrane potential [2, 3]: only slightly dependent on the membrane potential; effect on rate of desensitization [2, 3]: not to modify the rate of desensitization
CNc1ccc2oc(C[C@H]3O[C@@]4(CC[C@H]3C)O[C@H]([C@H](C)C(=O)c3ccc[nH]3)[C@H](C)C[C@H]4C)nc2c1C(=O)O [calcimycine, calcimycin] |  | unresponsive |  | 
CN1CCCC1c1cccnc1 (centres unmarked) [nicotine] |  | unresponsive | dose-dependently produce mast cell degranulation | concentration sufficient to induce complete degranulation ([1]; HMC-1 cells, calcium 1 mM): Nanomolar concentrations
C[C@@H]1O[C@H](C[N+](C)(C)C)C[C@H]1O [muscarine] |  |  | No histamine liberation | 
CC1(C)CC(C)(C)CC(C)(N)C1.CS(=O)(=O)O [Neramexane-mesylate] | inhibits the observed effects in equimolar concentrations and, dose-dependently, even in lower concentrations than the respective agonist |  |  | 
